Where “and” joins values, the source holds several entries; their conditions need not be identical. Equal values may be shown once. Read-outs that look alike come from different tables or passages of the source.
Key:
[1] = molecular target: T1, receptor tyrosine kinase AXL (Homo sapiens, UniProt P30530); assay: Enzyme activity of receptor tyrosine kinase AXL (ELISA); format: biochemical; details: for inhibition at 0.001 µM: 1 nM; for inhibition at 0.001 µM / inhibition at 0.01 µM / inhibition at 0.1 µM: read-out: AXL activity Inhibitory rate(%); for inhibition at 0.01 µM: 10 nM; for inhibition at 0.1 µM: 100 nM
T1 construct: 50 μL of AXL kinase domain recombinant protein diluted in reaction buffer was added to start the reaction; made in house; host or cells: insect cells (baculovirus expression system)
T1 sequence (P30530 536-807 limits assumed): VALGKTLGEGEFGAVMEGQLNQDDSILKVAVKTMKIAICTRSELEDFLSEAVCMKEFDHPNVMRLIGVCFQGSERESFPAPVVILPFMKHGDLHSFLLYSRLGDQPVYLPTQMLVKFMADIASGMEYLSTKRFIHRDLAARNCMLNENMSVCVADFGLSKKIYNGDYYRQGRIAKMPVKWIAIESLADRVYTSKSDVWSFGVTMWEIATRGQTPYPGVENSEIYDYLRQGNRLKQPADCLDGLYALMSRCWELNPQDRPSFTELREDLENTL
Method: Detection method: Enzyme-linked immunosorbent assay (ELISA)
Tested receptor tyrosine kinase: AXL
The full-wavelength microplate reader for experiment reading was a product of Molecular Device, model: SpectraMax 190; the experiment water was distilled water produced by Sinopharm Group.
Compound preparation: The compounds were centrifuged at 12,000 g for 5 min, and DMSO was added to prepare a 10^−2M stock solution, vortexed evenly and sonicated for 10 min for use, and stored at −40° C. During the test, the compound was diluted from the stock solution to 100 times the tested concentration with DMSO (the DMSO concentration in the system was 1%).
1. […] Discard the liquid from the well. The plate was washed and washed three times with T-PBS (0.1% Tween-20 in potassium-free PBS, 200 μL/well) for 5 minutes each time.
2. 49 μL of ATP solution diluted with reaction buffer (50 mM HEPES pH 7.4, 50 mM MgCl2, 0.5 mM MnCl2, 0.2 mM Na3VO4, 1 mM DTT) was added to each well, and […] of the tested compound was added to each well, and then 50 μL of AXL kinase domain recombinant protein diluted in reaction buffer was added to start the reaction. Two control wells without ATP were added in each experiment. (100 rpm) Reacted in 37° C. shaker for 1 hour. Discard the liquid from the well, and the plate was washed with T-PBS for three times.
3. […] Discard the liquid from the well, and the plate was washed with T-PBS for three times.
4. The horseradish peroxidase-labeled goat anti-mouse second antibody dilution (antibody diluted 1:2000 with BSA 5 mg/mL in T-PBS), 100 μL/well, and reacted in 37° C. shaker for 0.5 hours. Discard the liquid from the well, and the plate was washed with T-PBS for three times.
6. The reaction was quenched with 50 μL/well 2M […], and read at 490 nm using a tunable microplate reader VERSAmax.
The IC50 values were obtained by four-parameter regression analysis using the software supplied with the microplate reader.

[2] = molecular target: receptor tyrosine kinase c-Met (Homo sapiens, UniProt P08581); assay: In vitro c-Met kinase inhibitory activity; format: biochemical; details: two values per compound; for inhibition at 0.001 µM / inhibition at 0.01 µM / inhibition at 0.1 µM: read-out: c-Met Inhibitory rate (%)
From the text: Experimental Example 3: Study of In Vitro c-Met Kinase Inhibitory Activity
Since the screening results of 369 kinase profiles of compound DC621044 has shown that the compound has a certain inhibitory activity on c-Met. We further screened some compounds for their inhibitory activity on c-Met kinase.

BaF3/TEL-AXL cells = assay: Proliferation of BaF3/TEL-AXL cells; format: cell-based; details: for inhibition at 0.001 µM / inhibition at 0.01 µM / inhibition at 0.1 µM: BaF3/TEL-AXL
From the text: Experimental Example 4: Effect of the Compound on the Proliferation Effect of BaF3/TEL-AXL Cells
Based on the above-mentioned enzyme activity research results, we further explored the effect of the compound on cell proliferation mediated by receptor tyrosine kinase AXL.

[3] = 1 nM, two values per compound, 0.001 µM
[4] = 10 nM, two values per compound, 0.01 µM
[5] = 100 nM, two values per compound, 0.1 µM
[6] = 1 nM, two values per compound, read-out: BaF3/TEL-AXL proliferation Inhibitory rate (%)
[7] = 10 nM, two values per compound, read-out: BaF3/TEL-AXL proliferation Inhibitory rate (%)
[8] = 100 nM, two values per compound, read-out: BaF3/TEL-AXL proliferation Inhibitory rate (%)
[9] = concentration of 1 nM, read-out: inhibited the proliferation of BaF3/TEL-AXL cells

receptor tyrosine kinase c-Met, sequence (P08581 25-1390): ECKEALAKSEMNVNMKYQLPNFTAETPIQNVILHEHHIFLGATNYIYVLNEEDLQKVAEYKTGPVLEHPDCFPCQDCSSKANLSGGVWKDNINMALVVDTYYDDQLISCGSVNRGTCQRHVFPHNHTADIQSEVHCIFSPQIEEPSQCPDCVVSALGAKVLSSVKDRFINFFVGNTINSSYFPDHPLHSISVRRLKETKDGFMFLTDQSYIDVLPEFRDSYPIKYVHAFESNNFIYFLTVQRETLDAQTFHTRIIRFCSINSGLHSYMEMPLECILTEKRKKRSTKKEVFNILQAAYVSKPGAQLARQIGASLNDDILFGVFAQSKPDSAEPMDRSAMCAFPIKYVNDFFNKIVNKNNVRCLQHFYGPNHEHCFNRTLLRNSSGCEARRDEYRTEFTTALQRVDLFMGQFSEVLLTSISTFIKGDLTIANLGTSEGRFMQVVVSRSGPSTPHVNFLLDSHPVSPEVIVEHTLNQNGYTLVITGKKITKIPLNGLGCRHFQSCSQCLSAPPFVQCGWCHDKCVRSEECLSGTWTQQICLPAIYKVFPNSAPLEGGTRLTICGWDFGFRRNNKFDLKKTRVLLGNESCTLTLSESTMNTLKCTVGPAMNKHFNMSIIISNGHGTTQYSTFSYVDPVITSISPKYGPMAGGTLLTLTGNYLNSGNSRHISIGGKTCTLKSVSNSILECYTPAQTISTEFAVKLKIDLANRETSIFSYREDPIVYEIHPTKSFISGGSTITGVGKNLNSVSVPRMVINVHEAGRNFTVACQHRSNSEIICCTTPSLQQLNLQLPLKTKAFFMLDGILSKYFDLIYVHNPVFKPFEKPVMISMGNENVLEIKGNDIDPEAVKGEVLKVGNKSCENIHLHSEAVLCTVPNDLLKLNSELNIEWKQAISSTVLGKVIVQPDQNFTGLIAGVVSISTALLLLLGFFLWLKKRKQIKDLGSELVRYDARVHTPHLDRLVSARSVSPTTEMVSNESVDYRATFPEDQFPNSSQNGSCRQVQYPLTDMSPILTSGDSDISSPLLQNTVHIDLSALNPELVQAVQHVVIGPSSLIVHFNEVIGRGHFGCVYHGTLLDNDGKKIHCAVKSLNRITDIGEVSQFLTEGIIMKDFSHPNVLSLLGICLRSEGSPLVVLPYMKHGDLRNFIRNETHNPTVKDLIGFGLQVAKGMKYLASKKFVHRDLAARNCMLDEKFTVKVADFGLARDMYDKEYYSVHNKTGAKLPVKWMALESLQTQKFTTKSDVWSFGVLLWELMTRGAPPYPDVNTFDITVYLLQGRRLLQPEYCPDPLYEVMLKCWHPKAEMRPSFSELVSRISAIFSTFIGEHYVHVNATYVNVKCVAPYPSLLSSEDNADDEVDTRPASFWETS

SMILES	IC50 [1] [nM]	inhibition at 0.001 µM [1] [%]	inhibition at 0.01 µM [1] [%]	inhibition at 0.1 µM [1] [%]	c-Met Inhibitory rate (%) ([2]; 1 nM, 0.001 µM)	inhibition at 0.001 µM ([2]; 1 nM) [%]	c-Met Inhibitory rate (%) ([2]; 10 nM, 0.01 µM)	inhibition at 0.01 µM ([2]; 10 nM) [%]	c-Met Inhibitory rate (%) ([2]; 100 nM, 0.1 µM)	inhibition at 0.1 µM ([2]; 100 nM) [%]	BaF3/TEL-AXL proliferation Inhibitory rate (%) (BaF3/TEL-AXL cells; [3])	BaF3/TEL-AXL proliferation Inhibitory rate (%) (BaF3/TEL-AXL cells; [4])	BaF3/TEL-AXL proliferation Inhibitory rate (%) (BaF3/TEL-AXL cells; [5])	inhibition at 0.001 µM (BaF3/TEL-AXL cells; [6]) [%]	inhibition at 0.01 µM (BaF3/TEL-AXL cells; [7]) [%]	inhibition at 0.1 µM (BaF3/TEL-AXL cells; [8]) [%]	inhibition at 0.001 µM (BaF3/TEL-AXL cells; [9]) [%]
COCCOc1cc2ncnc(Oc3ccc(NC(=O)c4c5n(n(-c6cc(F)ccc6F)c4=O)CCCC5)cc3F)c2cc1OCCOC [DC621024, 1-(2,5-difluorophenyl)-N-(4-((6,7-bis(2-methoxyethoxy)quinazolin-4-yl)oxy)-3-fluorophenyl)-2-oxo-1,2,4,5,6,7-hexahydropyrazolo[1,5-a]pyridine-3-formamide]	8.7 ± 1	29.9	72.5	100	53.5	40.5	80.5%	66.8	100	99.4	75.0	80.5	81.3	79.8	81	85	> 70
COCCOc1cc2ncnc(Oc3ccc(NC(=O)c4c5n(n(-c6ccccc6)c4=O)CCCC5)c(F)c3)c2cc1OCCOC [DC621051, N-(4-((6,7-bis(2-methoxyethoxy)quinazolin-4-yl)oxy)-2-fluorophenyl)-2-oxo-1-phenyl-1,2,4,5,6,7-hexahydropyrazolo[1,5-a]pyridine-3-formamide]	–	8.2	54.2	100	55.2	39.5	75.9%	62.4	97.5	93.9	82.9	85.9	86.6	84.7	85.8	86.7	> 70
COCCOc1cc2ncnc(Oc3ccc(NC(=O)c4c5n(n(-c6ccc(F)cc6)c4=O)CCCC5)cc3Cl)c2cc1OCCOC [DC621100, N-(4-((6,7-bis(2-methoxyethoxy)quinazolin-4-yl)oxy)-3-chlorophenyl)-1-(4-fluorophenyl)-2-oxo-1,2,4,5,6,7-hexahydropyrazolo[1,5-a]pyridine-3-formamide]	–	18.9	59.2	93	–	–	63.7% and 38.0%	–	89.1	94.4	–	–	–	–	–	–	–

More lines, main results first:

IC50 [1] [nM]	inhibition at 0.001 µM [1] [%]	inhibition at 0.01 µM [1] [%]	inhibition at 0.1 µM [1] [%]	c-Met Inhibitory rate (%) ([2]; 1 nM, 0.001 µM)	inhibition at 0.001 µM ([2]; 1 nM) [%]	c-Met Inhibitory rate (%) ([2]; 10 nM, 0.01 µM)	inhibition at 0.01 µM ([2]; 10 nM) [%]	c-Met Inhibitory rate (%) ([2]; 100 nM, 0.1 µM)	inhibition at 0.1 µM ([2]; 100 nM) [%]	SMILES	BaF3/TEL-AXL proliferation Inhibitory rate (%) (BaF3/TEL-AXL cells; [3])	BaF3/TEL-AXL proliferation Inhibitory rate (%) (BaF3/TEL-AXL cells; [4])	BaF3/TEL-AXL proliferation Inhibitory rate (%) (BaF3/TEL-AXL cells; [5])	inhibition at 0.001 µM (BaF3/TEL-AXL cells; [6]) [%]	inhibition at 0.01 µM (BaF3/TEL-AXL cells; [7]) [%]	inhibition at 0.1 µM (BaF3/TEL-AXL cells; [8]) [%]	inhibition at 0.001 µM (BaF3/TEL-AXL cells; [9]) [%]
–	12.2	58.2	95.9	60.0	61.1	48.9% and 69.6%	–	100	94.1	COCCOc1cc2ncnc(Oc3ccc(NC(=O)c4c5n(n(-c6cc(F)ccc6F)c4=O)CCCC5)c(F)c3)c2cc1OCCOC [DC621054, 1-(2,5-difluorophenyl)-N-(4-((6,7-bis(2-methoxyethoxy)quinazolin-4-yl)oxy)-2-fluorophenyl)-2-oxo-1,2,4,5,6,7-hexahydropyrazolo[1,5-a]pyridine-3-formamide]	81.8	82.5	86.1	79.6	82.8	84.7	–
–	16	55.1	91.9	51.3	34	64.0%	55.2	95.9	94.6	COCCOc1cc2ncnc(Oc3ccc(NC(=O)c4c5n(n(-c6ccccc6F)c4=O)CCCC5)c(F)c3)c2cc1OCCOC [DC621057, N-(4-((6,7-bis(2-methoxyethoxy)quinazolin-4-yl)oxy)-2-fluorophenyl)-1-(2-fluorophenyl)-2-oxo-1,2,4,5,6,7-hexahydropyrazolo[1,5-a]pyridine-3-formamide]	76.6	–	86.0	69.5	83.2	87.5	–
–	21.5	54.4	84.2	–	–	58.1%	43.9	95.4	91.9	COCCOc1cc2ncnc(Oc3ccc(NC(=O)c4c5n(n(-c6ccc(F)cc6)c4=O)CCCC5)c(F)c3)c2cc1OCCOC [DC621060, N-(4-((6,7-bis(2-methoxyethoxy)quinazolin-4-yl)oxy)-2-fluorophenyl)-1-(4-fluorophenyl)-2-oxo-1,2,4,5,6,7-hexahydropyrazolo[1,5-a]pyridine-3-formamide]	66.3	73.4	85.3	64.5	71	85.4	–
–	11.5	60.5	91.8	32.4	17.7	56.2%	46.4	99.2	94.8	O=C(Nc1ccc(Oc2ncnc3cc4c(cc23)OCCOCCOCCO4)c(F)c1)c1c2n(n(-c3cc(F)ccc3F)c1=O)CCCC2 [DC621063, 1-(2,5-difluorophenyl)-N-(3-fluoro-4-((7,8,10,11,13,14-hexahydro-[1,4,7,10]tetraoxacyclododecane[2,3-g]quinazolin-4-yl)oxy)phenyl)-2-oxo-1,2,4,5,6,7-hexahydropyrazolo[1,5-a]pyridine-3-formamide]	61.0	66.0	78.2	47.8	67.2	82.3	–
–	8.6	54.5	89	–	–	–	–	–	–	O=C(Nc1ccc(Oc2ncnc3cc4c(cc23)OCCOCCOCCO4)c(F)c1)c1c2n(n(-c3ccc(F)cc3)c1=O)CCCC2 [DC621067, N-(3-fluoro-4-((7,8,10,11,13,14-hexahydro-[1,4,7,10]tetraoxacyclododecane [2,3-g]quinazolin-4-yl)oxy)phenyl)-1-(4-fluorophenyl)-2-oxo-1,2,4,5,6,7-hexahydropyrazolo[1,5-a]pyridine-3-formamide]	74.8	85.4	83.0	80.6	87.2	80.8	–

Reference: patent US12497394B2, “Fused-cyclic pyrazolone formamide compound and preparation method therefor, pharmaceutical composition and use thereof” (SHANGHAI INSTITUTE OF MATERIA MEDICA, CHINESE ACADEMY OF …, priority 2018, dated 2025)
